Source: patent US12643859B2, “Pyridyl oxycarboxylic acid oxime derivative and preparation method therefor, weeding composition and application thereof” (Qingdao Kingagroot Chemical Compound Co., Ltd., priority 2018, dated 2026)
Blank lines part the entries; values can stand above or below the molecule they belong to.

How the values were obtained:
Assay type in all cases: in vivo
Indica rice = test: Post-emergence test experiment, crop selectivity; conditions: post-emergence spray, 3 weeks in greenhouse
Experimental: (§1) The above described growth inhibition rate is fresh weight inhibition rate.
(§2) Post-emergence test experiment: Monocotyledonous and dicotyledonous weed seeds and main crop seeds (i. e. wheat, corn, rice, soybean, cotton, oilseed, millet and sorghum.) were put into a plastic pot loaded with soil. Then covered with 0.5-2 cm soil, the seeds were allowed to grow in good greenhouse environment. The test plants were treated at 2-3 leaf stage 2 weeks after sowing. The test compounds of the invention were dissolved with acetone respectively, then added with tween-80, and using 1.5 liters per hectare of an emulsible concentrate of methyl oleate as a synergist, and diluted by certain amount of water to certain concentration. The solution was sprayed to the plants with a sprayer. Then the plants were cultured for 3 weeks in the greenhouse, and the experiment result of weed controlling effect was listed in tables 3-4.

Japonica rice = test: Post-emergence test experiment, crop selectivity; conditions: for Activity level (fresh weight growth inhibition rate), Japonica rice: post-emergence spray, 3 weeks in greenhouse
Experimental: as §1, §2

Cyperus iria = test: Post-emergence test experiment, weed control; conditions: post-emergence spray, 3 weeks in greenhouse; for Activity level (fresh weight growth inhibition rate), Cyperus iria: 600 g a.i./ha plus water 450 kg/ha
Experimental: as §1, §2

[1] = system: Monocotyledonous and dicotyledonous weed seeds and main crop seeds; test: Post-emergence test experiment (Table 3, 1000 g a.i./ha); conditions: 3 weeks in greenhouse, fresh weight inhibition
Experimental: as §1, §2

[2] = 600 g a.i./ha plus water 450 kg/ha

SMILES: CCC(=NOC(=O)C(C)Oc1nc(F)c(Cl)c(N)c1Cl)C(=O)NCc1ccc(C)cc1 (stereo not shown) [Compound 100]
- Activity level (fresh weight growth inhibition rate), Indica rice (Indica rice; [2]): 0 (Level 0: the growth inhibition rate is less than 5%)
- Activity level (fresh weight growth inhibition rate), Japonica rice (Japonica rice; [2]): 0 (Level 0: the growth inhibition rate is less than 5%)
- Activity level (fresh weight growth inhibition rate), Cyperus iria (Cyperus iria): 5 (Level 5: the growth inhibition rate is greater than 85%)
- Activity level (growth inhibition rate) Digitaria sanguinalis [1]: 5 (Level 5: the growth inhibition rate is greater than 85%)
- Activity level (growth inhibition rate) Echinochloa crusgalli [1]: 5 (Level 5: the growth inhibition rate is greater than 85%)
- Activity level (growth inhibition rate) Galium spurium [1]: 5 (Level 5: the growth inhibition rate is greater than 85%)
- Activity level (growth inhibition rate) Leptochloa chinensis [1]: 5 (Level 5: the growth inhibition rate is greater than 85%)
- Activity level (growth inhibition rate) Monochoria Vaginalis [1]: 5 (Level 5: the growth inhibition rate is greater than 85%)
- Activity level (growth inhibition rate) Murdannia triquetra [1]: 5 (Level 5: the growth inhibition rate is greater than 85%)
- Activity level (growth inhibition rate) Setaria viridis [1]: 5 (Level 5: the growth inhibition rate is greater than 85%)

- Selectivity to / inhibition of rice (in words) (Japonica rice; post-emergence, regardless of japonica or indica rice): great inhibition to rice
SMILES: CC(Oc1nc(F)c(Cl)c(N)c1Cl)C(=O)O (stereo not shown) [Control compound A, reference compound]
- Activity level (fresh weight growth inhibition rate), Indica rice (Indica rice; 300 g a.i./ha): 3 (Level 3: the growth inhibition rate is equal to or greater than 40% and less than 60%)
- Activity level (fresh weight growth inhibition rate), Indica rice (Indica rice; [2]): 3 (Level 3: the growth inhibition rate is equal to or greater than 40% and less than 60%)
- Activity level (fresh weight growth inhibition rate), Japonica rice (Japonica rice; 300 g a.i./ha): 2 (Level 2: the growth inhibition rate is equal to or greater than 20% and less than 40%)
- Activity level (fresh weight growth inhibition rate), Japonica rice (Japonica rice; [2]): 3 (Level 3: the growth inhibition rate is equal to or greater than 40% and less than 60%)
- inhibition at 300 g/ha (Cyperus iria; Cyperus iria, 504 h, 300 g a.i./ha, read-out: Activity level (fresh weight growth inhibition rate), Cyperus iria): 60 to 85%
- Activity level (fresh weight growth inhibition rate), Cyperus iria (Cyperus iria): 5 (Level 5: the growth inhibition rate is greater than 85%)

SMILES: CCCC(C)=NOC(=O)C(Oc1nc(F)c(Cl)c(N)c1Cl)C1CC1 (stereo not shown) [Compound 28]
- Activity level (growth inhibition rate) Galium spurium [1]: 5 (Level 5: the growth inhibition rate is greater than 85%)
- Activity level (growth inhibition rate) Monochoria Vaginalis [1]: 5 (Level 5: the growth inhibition rate is greater than 85%)
- Activity level (growth inhibition rate) Murdannia triquetra [1]: 5 (Level 5: the growth inhibition rate is greater than 85%)

SMILES: CSC(=NOC(=O)C(C)Oc1nc(F)c(Cl)c(N)c1Cl)c1ccc(SC)cc1 (stereo not shown) [Compound 89]
- Activity level (growth inhibition rate) Digitaria sanguinalis [1]: 5 (Level 5: the growth inhibition rate is greater than 85%)
- Activity level (growth inhibition rate) Echinochloa crusgalli [1]: 5 (Level 5: the growth inhibition rate is greater than 85%)
- Activity level (growth inhibition rate) Galium spurium [1]: 5 (Level 5: the growth inhibition rate is greater than 85%)
- Activity level (growth inhibition rate) Leptochloa chinensis [1]: 5 (Level 5: the growth inhibition rate is greater than 85%)
- Activity level (growth inhibition rate) Monochoria Vaginalis [1]: 5 (Level 5: the growth inhibition rate is greater than 85%)
- Activity level (growth inhibition rate) Murdannia triquetra [1]: 5 (Level 5: the growth inhibition rate is greater than 85%)
- Activity level (growth inhibition rate) Setaria viridis [1]: 5 (Level 5: the growth inhibition rate is greater than 85%)

SMILES: CC(=O)C(=NOC(=O)C(C)Oc1nc(F)c(Cl)c(N)c1Cl)c1ccc(NOc2ccccc2)cc1 (stereo not shown) [Compound 91]
- Activity level (growth inhibition rate) Digitaria sanguinalis [1]: 5 (Level 5: the growth inhibition rate is greater than 85%)
- Activity level (growth inhibition rate) Echinochloa crusgalli [1]: 5 (Level 5: the growth inhibition rate is greater than 85%)
- Activity level (growth inhibition rate) Galium spurium [1]: 5 (Level 5: the growth inhibition rate is greater than 85%)
- Activity level (growth inhibition rate) Leptochloa chinensis [1]: 5 (Level 5: the growth inhibition rate is greater than 85%)
- Activity level (growth inhibition rate) Monochoria Vaginalis [1]: 5 (Level 5: the growth inhibition rate is greater than 85%)
- Activity level (growth inhibition rate) Murdannia triquetra [1]: 5 (Level 5: the growth inhibition rate is greater than 85%)
- Activity level (growth inhibition rate) Setaria viridis [1]: 5 (Level 5: the growth inhibition rate is greater than 85%)

SMILES: CC(Oc1nc(F)c(Cl)c(N)c1Cl)C(=O)ON=Cc1cccc([N+](=O)[O-])c1 (stereo not shown) [Compound 73]
- Activity level (growth inhibition rate) Digitaria sanguinalis [1]: 5 (Level 5: the growth inhibition rate is greater than 85%)
- Activity level (growth inhibition rate) Echinochloa crusgalli [1]: 5 (Level 5: the growth inhibition rate is greater than 85%)
- Activity level (growth inhibition rate) Galium spurium [1]: 5 (Level 5: the growth inhibition rate is greater than 85%)
- Activity level (growth inhibition rate) Leptochloa chinensis [1]: 5 (Level 5: the growth inhibition rate is greater than 85%)
- Activity level (growth inhibition rate) Monochoria Vaginalis [1]: 5 (Level 5: the growth inhibition rate is greater than 85%)
- Activity level (growth inhibition rate) Murdannia triquetra [1]: 5 (Level 5: the growth inhibition rate is greater than 85%)
- Activity level (growth inhibition rate) Setaria viridis [1]: 5 (Level 5: the growth inhibition rate is greater than 85%)

SMILES: CC(Oc1nc(F)c(Cl)c(N)c1Cl)C(=O)ON=C(C(=O)NCc1ccccc1)c1ccccc1 (stereo not shown) [Compound 101]
- Activity level (growth inhibition rate) Digitaria sanguinalis [1]: 5 (Level 5: the growth inhibition rate is greater than 85%)
- Activity level (growth inhibition rate) Echinochloa crusgalli [1]: 5 (Level 5: the growth inhibition rate is greater than 85%)
- Activity level (growth inhibition rate) Galium spurium [1]: 5 (Level 5: the growth inhibition rate is greater than 85%)
- Activity level (growth inhibition rate) Leptochloa chinensis [1]: 5 (Level 5: the growth inhibition rate is greater than 85%)
- Activity level (growth inhibition rate) Monochoria Vaginalis [1]: 5 (Level 5: the growth inhibition rate is greater than 85%)
- Activity level (growth inhibition rate) Murdannia triquetra [1]: 5 (Level 5: the growth inhibition rate is greater than 85%)
- Activity level (growth inhibition rate) Setaria viridis [1]: 5 (Level 5: the growth inhibition rate is greater than 85%)

SMILES: CCc1cccc(C(Cl)=NOC(=O)C(C)Oc2nc(F)c(Cl)c(N)c2Cl)c1 (stereo not shown) [Compound 85]
- Activity level (growth inhibition rate) Digitaria sanguinalis [1]: 5 (Level 5: the growth inhibition rate is greater than 85%)
- Activity level (growth inhibition rate) Echinochloa crusgalli [1]: 5 (Level 5: the growth inhibition rate is greater than 85%)
- Activity level (growth inhibition rate) Galium spurium [1]: 5 (Level 5: the growth inhibition rate is greater than 85%)
- Activity level (growth inhibition rate) Leptochloa chinensis [1]: 5 (Level 5: the growth inhibition rate is greater than 85%)
- Activity level (growth inhibition rate) Monochoria Vaginalis [1]: 5 (Level 5: the growth inhibition rate is greater than 85%)
- Activity level (growth inhibition rate) Murdannia triquetra [1]: 5 (Level 5: the growth inhibition rate is greater than 85%)
- Activity level (growth inhibition rate) Setaria viridis [1]: 5 (Level 5: the growth inhibition rate is greater than 85%)

SMILES: CC(Oc1nc(F)c(Cl)c(N)c1Cl)C(=O)ON=C(c1ccc(Cl)cc1)c1cccc(F)c1 (stereo not shown) [Compound 82]
- Activity level (growth inhibition rate) Digitaria sanguinalis [1]: 5 (Level 5: the growth inhibition rate is greater than 85%)
- Activity level (growth inhibition rate) Echinochloa crusgalli [1]: 5 (Level 5: the growth inhibition rate is greater than 85%)
- Activity level (growth inhibition rate) Galium spurium [1]: 5 (Level 5: the growth inhibition rate is greater than 85%)
- Activity level (growth inhibition rate) Leptochloa chinensis [1]: 5 (Level 5: the growth inhibition rate is greater than 85%)
- Activity level (growth inhibition rate) Monochoria Vaginalis [1]: 5 (Level 5: the growth inhibition rate is greater than 85%)
- Activity level (growth inhibition rate) Murdannia triquetra [1]: 5 (Level 5: the growth inhibition rate is greater than 85%)
- Activity level (growth inhibition rate) Setaria viridis [1]: 5 (Level 5: the growth inhibition rate is greater than 85%)

SMILES: C=COC(=O)C(=NOC(=O)C(C)Oc1nc(F)c(Cl)c(N)c1Cl)C(=O)N(C)c1ccccc1 (stereo not shown) [Compound 106]
- Activity level (growth inhibition rate) Digitaria sanguinalis [1]: 5 (Level 5: the growth inhibition rate is greater than 85%)
- Activity level (growth inhibition rate) Echinochloa crusgalli [1]: 5 (Level 5: the growth inhibition rate is greater than 85%)
- Activity level (growth inhibition rate) Galium spurium [1]: 5 (Level 5: the growth inhibition rate is greater than 85%)
- Activity level (growth inhibition rate) Leptochloa chinensis [1]: 5 (Level 5: the growth inhibition rate is greater than 85%)
- Activity level (growth inhibition rate) Monochoria Vaginalis [1]: 5 (Level 5: the growth inhibition rate is greater than 85%)
- Activity level (growth inhibition rate) Murdannia triquetra [1]: 5 (Level 5: the growth inhibition rate is greater than 85%)
- Activity level (growth inhibition rate) Setaria viridis [1]: 5 (Level 5: the growth inhibition rate is greater than 85%)

SMILES: CC(Oc1nc(F)c(Cl)c(N)c1Cl)C(=O)ON=C(C(=O)N(C)C)c1ccccc1 (stereo not shown) [Compound 99]
- Activity level (growth inhibition rate) Digitaria sanguinalis [1]: 5 (Level 5: the growth inhibition rate is greater than 85%)
- Activity level (growth inhibition rate) Echinochloa crusgalli [1]: 5 (Level 5: the growth inhibition rate is greater than 85%)
- Activity level (growth inhibition rate) Galium spurium [1]: 5 (Level 5: the growth inhibition rate is greater than 85%)
- Activity level (growth inhibition rate) Leptochloa chinensis [1]: 5 (Level 5: the growth inhibition rate is greater than 85%)
- Activity level (growth inhibition rate) Monochoria Vaginalis [1]: 5 (Level 5: the growth inhibition rate is greater than 85%)
- Activity level (growth inhibition rate) Murdannia triquetra [1]: 5 (Level 5: the growth inhibition rate is greater than 85%)
- Activity level (growth inhibition rate) Setaria viridis [1]: 5 (Level 5: the growth inhibition rate is greater than 85%)
